Reference: PubChem BioAssay AID1963833 (Molecular Pharmacology Branch, DTP, NCI, 2024)
pIC50: −log10 of the molar value.

System: 883617-216-R-J1-PDC complex spheroid viability
Assay: Anticancer human tumor 883617-216-R-J1-PDC patient-derived bladder carcinoma cell line growth inhibition [POLQ]
Settings: for pIC50: curve of first compound; for viability, T/C: stronger effect = lower value; active means viability on the fitted dose curve at most 10% of control; inactive means the rest
In short: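 Growth inhibition in 3D: complex spheroids (tumor PDC, HUVEC, MSC) treated with POLQ inhibitor combinations; where Cmax unknown, highest tested concentration 10 microM, except SN-38 at 1 microM.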

[1] = second compound 0.0316 µM, first compound 0.0316 µM
[2] = second compound 0.0316 µM, first compound 0.1 µM
[3] = second compound 0.0316 µM, first compound 0.316 µM
[4] = second compound 0.0316 µM, first compound 1 µM
[5] = second compound 0.0316 µM, first compound 3.16 µM
[6] = second compound 0.0316 µM, first compound 10 µM
[7] = second compound 0.1 µM, first compound 0.0316 µM
[8] = second compound 0.1 µM, first compound 0.1 µM
[9] = second compound 0.1 µM, first compound 0.316 µM
[10] = second compound 0.1 µM, first compound 1 µM
[11] = second compound 0.1 µM, first compound 3.16 µM
[12] = second compound 0.1 µM, first compound 10 µM
[13] = second compound 0.316 µM, first compound 0.0316 µM
[14] = second compound 0.316 µM, first compound 0.1 µM
[15] = second compound 0.316 µM, first compound 0.316 µM
[16] = second compound 0.316 µM, first compound 1 µM
[17] = second compound 0.316 µM, first compound 3.16 µM
[18] = second compound 0.316 µM, first compound 10 µM
[19] = second compound 1 µM, first compound 0.0316 µM
[20] = second compound 1 µM, first compound 0.1 µM
[21] = second compound 1 µM, first compound 0.316 µM
[22] = second compound 1 µM, first compound 1 µM
[23] = second compound 1 µM, first compound 3.16 µM
[24] = second compound 1 µM, first compound 10 µM
[25] = second compound 3.16 µM, first compound 0.0316 µM
[26] = second compound 3.16 µM, first compound 0.1 µM
[27] = second compound 3.16 µM, first compound 0.316 µM
[28] = second compound 3.16 µM, first compound 1 µM
[29] = second compound 3.16 µM, first compound 3.16 µM
[30] = second compound 3.16 µM, first compound 10 µM
[31] = second compound 10 µM, first compound 0.0316 µM
[32] = second compound 10 µM, first compound 0.1 µM
[33] = second compound 10 µM, first compound 0.316 µM
[34] = second compound 10 µM, first compound 1 µM
[35] = second compound 10 µM, first compound 3.16 µM
[36] = second compound 10 µM, first compound 10 µM
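Further: spheroids exposed to compounds for seven days before readout.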
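Wherever viability, T/C is given: 100% = DMSO vehicle control viability.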

CCc1cc2c(N3CCc4c(cc(Cn5ccnc5)cc4-c4cn(C)nc4C(F)(F)F)C3=O)cc(C)nc2c(OC)n1 + Nc1ccc(C#CCN(C(=O)Cc2ncc(C(F)(F)F)cc2C(F)(F)F)c2ccc(F)cc2)nn1
5.01: pIC50 (second compound 10 µM)
< 5.00: pIC50 (second compound 0.0316 µM) | pIC50 (second compound 0.1 µM) | pIC50 (second compound 0.316 µM) | pIC50 (second compound 1 µM) | pIC50 (second compound 3.16 µM)
inactive: viability, T/C [1] 89.2% | viability, T/C [2] 92.2% | viability, T/C [3] 92.8% | viability, T/C [4] 90.4% | viability, T/C [5] 76% | viability, T/C [6] 52.3% | viability, T/C [7] 85.5% | viability, T/C [8] 96.9% | viability, T/C [9] 95.5% | viability, T/C [10] 90.6% | viability, T/C [11] 79.5% | viability, T/C [12] 64.5% | viability, T/C [13] 105% | viability, T/C [14] 93.1% | viability, T/C [15] 98% | viability, T/C [16] 88.4% | viability, T/C [17] 73.9% | viability, T/C [18] 57.4% | viability, T/C [19] 91.5% | viability, T/C [20] 93.3% | viability, T/C [21] 94% | viability, T/C [22] 88.9% | viability, T/C [23] 71.6% | viability, T/C [24] 61.8% | viability, T/C [25] 106% | viability, T/C [26] 92.4% | viability, T/C [27] 96.4% | viability, T/C [28] 97.5% | viability, T/C [29] 78.6% | viability, T/C [30] 67.8% | viability, T/C [31] 106% | viability, T/C [32] 118% | viability, T/C [33] 115% | viability, T/C [34] 101% | viability, T/C [35] 90.5% | viability, T/C [36] 48.8%

COc1cc2cc(C(=O)CCC(=O)O)sc2cc1OC + Nc1ccc(C#CCN(C(=O)Cc2ncc(C(F)(F)F)cc2C(F)(F)F)c2ccc(F)cc2)nn1
inactive: viability, T/C [1] 109% | viability, T/C [2] 107% | viability, T/C [3] 123% | viability, T/C [4] 93.5% | viability, T/C [5] 105% | viability, T/C [6] 104% | viability, T/C [7] 112% | viability, T/C [8] 90.6% | viability, T/C [9] 101% | viability, T/C [10] 95.5% | viability, T/C [11] 101% | viability, T/C [12] 107% | viability, T/C [13] 90.7% | viability, T/C [14] 101% | viability, T/C [15] 94.9% | viability, T/C [16] 100% | viability, T/C [17] 114% | viability, T/C [18] 106% | viability, T/C [19] 97.1% | viability, T/C [20] 125% | viability, T/C [21] 108% | viability, T/C [22] 102% | viability, T/C [23] 91.5% | viability, T/C [24] 95.6% | viability, T/C [25] 114% | viability, T/C [26] 115% | viability, T/C [27] 115% | viability, T/C [28] 83.2% | viability, T/C [29] 92.5% | viability, T/C [30] 120% | viability, T/C [31] 122% | viability, T/C [32] 128% | viability, T/C [33] 122% | viability, T/C [34] 113% | viability, T/C [35] 155% | viability, T/C [36] 110%
< 5.00: pIC50 (second compound 0.0316 µM) | pIC50 (second compound 0.1 µM) | pIC50 (second compound 0.316 µM) | pIC50 (second compound 1 µM) | pIC50 (second compound 3.16 µM) | pIC50 (second compound 10 µM)

O=C(Nc1ccc(O)c(NS(=O)(=O)c2ccc(F)cc2)c1)c1ccc(-c2ccccc2)cc1 + Nc1ccc(C#CCN(C(=O)Cc2ncc(C(F)(F)F)cc2C(F)(F)F)c2ccc(F)cc2)nn1
inactive: viability, T/C [1] 91.5% | viability, T/C [2] 92.5% | viability, T/C [3] 102% | viability, T/C [4] 82.8% | viability, T/C [5] 79.3% | viability, T/C [6] 71% | viability, T/C [7] 106% | viability, T/C [8] 104% | viability, T/C [9] 90.1% | viability, T/C [10] 84.1% | viability, T/C [11] 88.4% | viability, T/C [12] 70.1% | viability, T/C [13] 90.4% | viability, T/C [14] 102% | viability, T/C [15] 97.6% | viability, T/C [16] 85.5% | viability, T/C [17] 81.7% | viability, T/C [18] 72.5% | viability, T/C [19] 91.8% | viability, T/C [20] 95.4% | viability, T/C [21] 96.3% | viability, T/C [22] 84.3% | viability, T/C [23] 87.9% | viability, T/C [24] 66.1% | viability, T/C [25] 101% | viability, T/C [26] 101% | viability, T/C [27] 104% | viability, T/C [28] 88.1% | viability, T/C [29] 86.5% | viability, T/C [30] 72.2% | viability, T/C [31] 116% | viability, T/C [32] 108% | viability, T/C [33] 115% | viability, T/C [34] 97.8% | viability, T/C [35] 117% | viability, T/C [36] 72.6%
< 5.00: pIC50 (second compound 0.0316 µM) | pIC50 (second compound 0.1 µM) | pIC50 (second compound 0.316 µM) | pIC50 (second compound 1 µM) | pIC50 (second compound 3.16 µM) | pIC50 (second compound 10 µM)
